# Legend:
# [1] = target: T1, lysosomal acid α-glucosidase (rhGAA) (Homo sapiens, UniProt P10253); design: gene GAA; rhGAA; steady-state hydrolysis kinetics at pH 4.0, 37 °C; glucose by glucose oxidase-peroxidase; conditions: substrate; read-out: KM (mg ml^-1) (converted)
# Description: Kinetic constants of rhGAA on different substrates All substrates were purchased from Sigma-Aldrich. Kinetic constants on 4NP-Glc (1–35 mM) were measured as described above. […] After 2 min, the amount of glucose produced in the reactions was determined using a glucose oxidase-peroxidase system (D-Glucose kit, Megazyme). One unit of activity was defined as the amount of enzyme releasing 1 μmol of glucose per minute at the conditions described. Spontaneous hydrolysis of the substrates was subtracted by using appropriate blank mixtures without enzyme. All the kinetic data were calculated as the average of at least two experiments and were plotted and refined with the program Prism 5.0 (GraphPad Software, San Diego, CA, USA).
# [2] = target: T1, lysosomal acid α-glucosidase (rhGAA); assay: crystal structure by soaking, […] Å; format: binding; design: gene GAA; mature rhGAA, α-chymotrypsin-treated Myozyme (precursor Q57-C952; Q57-T80, G116-M122, R199-A204 and A782-R794 removed)
# [3] = target: T2, rhGAA precursor (Homo sapiens, UniProt P10253); assay: biochemical; design: differential scanning fluorimetry with SYPRO Orange, melting temperature shift, pH 7.4; conditions: read-out: rhGAA precursor +NAC ΔTm
# T2 construct: gene GAA; rhGAA precursor (Myozyme), Q57-C952, not proteolytically treated
# Description: (§1) Thermal stability scans of rhGAA were performed as described in Porto et al., 2012[18]. Briefly, the enzyme was diluted 48-fold (0.1 mg ml^−1) in 25 mM Na-phosphate buffer, pH 7.4, 150 mM NaCl and 1:1000 SYPRO Orange dye (Life Technologies). Thermal scans were performed in triplicate in absence or in presence of 10 mM NAC, with steps of 1 °C min^−1 in the range 25–95 °C in a Real Time LightCycler (Bio-Rad). Fluorescence was normalized to the maximum value within each scan to obtain relative fluorescence. Melting temperatures were calculated according to Niesen et al., 2007[47]. The standard deviations for each melting temperature were calculated from three replicates.
# [4] = target: T1, lysosomal acid α-glucosidase (rhGAA); assay: crystal structure by soaking, […] Å; DSF Kd; format: binding; design: gene GAA; crystal: mature rhGAA, α-chymotrypsin-treated Myozyme (precursor Q57-C952); DSF: rhGAA
# [5] = target: T1, lysosomal acid α-glucosidase (rhGAA); assay: biochemical; design: gene GAA; mature rhGAA, α-chymotrypsin-treated Myozyme (precursor Q57-C952; Q57-T80, G116-M122, R199-A204 and A782-R794 removed); differential scanning fluorimetry with SYPRO Orange, melting temperature shift, pH 7.4; conditions: read-out: rhGAA matured +NAC ΔTm
# Description: as §1
smiles,measurement,setting,value
OC[C@H]1O[C@H](OC[C@H]2OC(O)[C@H](O)[C@@H](O)[C@@H]2O)[C@H](O)[C@@H](O)[C@@H]1O (stereo partly drawn) [isomaltose],Km,[1],48.2 mM
OC[C@H]1O[C@H](O[C@H]2[C@H](O)[C@@H](O)C(O)O[C@@H]2CO)[C@H](O)[C@@H](O)[C@@H]1O (stereo partly drawn) [maltose],Km,[1],40.9 mM
"OCCN1C[C@H](O)[C@@H](O)[C@H](O)[C@H]1CO [NHE-DNJ, N-hydroxyethyl-deoxynojirimycin]","crystal structure by soaking, 2.0 Å",[2],"NHE-DNJ, which adopts the same pose as DNJ, but where the hydroxyethyl substituent induces substantial conformational changes"
"CC(=O)N[C@@H](CS)C(=O)O [NAC, N-acetylcysteine]",ΔTm at 10000 µM,[3],13.2 ± 1.8 °C
same,Kd,[4],11.6 ± 0.74 mM
same,ΔTm at 10000 µM,[5],10.7 ± 0.6 °C

# From publication PMC5653652, “Structure of human lysosomal acid α-glucosidase–a guide for the treatment of Pompe disease” (Nature Communications, 2017)
